This is an account of results in US7435740B2 (King Pharmaceuticals Research and Development, Inc., priority 2005, dated 2008).

Read-outs that look alike come from different tables or passages of the source.

Data set [1] addresses T1, human recombinant A3 adenosine receptors (Homo sapiens, UniProt P0DMS8).
T1 construct: expressed in transfected cells; host or cells: CHO cells (membranes)
T1 sequence (P0DMS8 1-318): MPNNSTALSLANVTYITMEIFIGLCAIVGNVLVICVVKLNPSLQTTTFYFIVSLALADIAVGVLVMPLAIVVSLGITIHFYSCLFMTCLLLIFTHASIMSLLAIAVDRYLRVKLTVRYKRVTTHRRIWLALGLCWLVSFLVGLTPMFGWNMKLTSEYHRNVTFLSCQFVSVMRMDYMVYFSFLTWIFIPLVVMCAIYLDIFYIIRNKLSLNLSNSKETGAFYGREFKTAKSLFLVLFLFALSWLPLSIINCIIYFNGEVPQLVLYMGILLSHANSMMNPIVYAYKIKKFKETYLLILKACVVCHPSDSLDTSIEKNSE
Put plainly: [3H]-MRE 3008F20 binding to hA3 receptors expressed in CHO cells. The following applies: for Ki: CHO cell membranes, 1 nM [3H]-MRE 3008F20, geometric mean, confidence limits in the line below, read-out: [3H] MRE3008F20 binding to hA3 receptors expressed in CHO cells Ki; for [3H] MRE3008F20 binding to hA3 receptors, percentage in parentheses: percentage printed below the > bound, meaning not defined in the patent.
Procedure: (§1) For membrane preparation the culture medium was removed and the cells were washed with PBS and scraped off T75 flasks in ice-cold hypotonic buffer (5 mM Tris HCl, 2 mM EDTA, pH 7.4).
(§2) The cell suspension was homogenized with Polytron and the homogenate was spun for 10 min at 1,000×g. The supernatant was then centrifuged for 30 min at 100,000×g. […] Then the suspension was frozen at −80° C.
Non-specific binding was defined as binding in the presence of 1 μM MRE 3008F20 and was about 30% of total binding.
(§3) Ki=IC50/(1+[C*]/KD*), where [C*] is the concentration of the radioligand and KD* its dissociation constant.

For data set [2], the target named is human recombinant A2A adenosine receptors (Homo sapiens, UniProt P29274). The data set can be described thus: Radioligand binding to hA2A receptors expressed in CHO cells. The conditions noted are these: for [3H] ZM 241385 binding to hA2A receptors, percentage in parentheses: percentage given after the > bound, meaning not defined in the patent.
Procedure: as §1, §2, §3
For data set [3], the target named is T2, human recombinant A1 adenosine receptor (Homo sapiens, UniProt P30542).
T2 sequence (P30542 1-326): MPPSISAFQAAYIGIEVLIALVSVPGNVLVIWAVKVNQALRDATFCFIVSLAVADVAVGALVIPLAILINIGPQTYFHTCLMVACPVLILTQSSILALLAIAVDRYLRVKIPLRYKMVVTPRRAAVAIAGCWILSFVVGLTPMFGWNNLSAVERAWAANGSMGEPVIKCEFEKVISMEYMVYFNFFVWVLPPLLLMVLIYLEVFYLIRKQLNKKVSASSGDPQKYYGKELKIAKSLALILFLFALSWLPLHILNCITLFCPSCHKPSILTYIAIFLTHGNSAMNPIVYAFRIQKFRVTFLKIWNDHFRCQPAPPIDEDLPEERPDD
The data set can be described thus: [3H]-DPCPX binding to human A1 adenosine receptor expressed in CHO cells. The following applies: for [3H] DPCPX binding to hA1, percentage in parentheses: percentage given after the > bound, meaning not defined in the patent.
Procedure: as §1, §2, §3

The target of data set [4] is T3, human recombinant A2B adenosine receptor (Homo sapiens, UniProt P29275).
T3 sequence (P29275 1-332): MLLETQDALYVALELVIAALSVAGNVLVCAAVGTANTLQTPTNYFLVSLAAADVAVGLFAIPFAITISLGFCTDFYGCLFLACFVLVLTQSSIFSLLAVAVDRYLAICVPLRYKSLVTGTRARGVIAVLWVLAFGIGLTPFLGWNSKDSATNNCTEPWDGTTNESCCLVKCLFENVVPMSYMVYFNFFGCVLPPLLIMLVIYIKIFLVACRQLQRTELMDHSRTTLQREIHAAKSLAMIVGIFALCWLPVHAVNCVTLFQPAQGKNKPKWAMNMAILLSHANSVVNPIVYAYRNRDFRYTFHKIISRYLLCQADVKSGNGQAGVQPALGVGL
The data set can be described thus: cAMP assay in CHO hA2B. Type of data set: cell-based. The following applies: for IC50: confidence limits in parentheses, read-out: cAMP assay in CHO hA22B IC50; for cAMP assay in CHO hA22B, percentage in parentheses: percentage given after the > bound, meaning not defined in the patent. In general terms: Cyclic AMP is a second messenger, typically raised through Gs and lowered through Gi signalling.

Where [5] appears, read: read-out: [3H] DPCPX binding to hA1, CHO cell membranes, 1 nM [3H]-DPCPX, geometric mean with confidence limits in parentheses.

human recombinant A2A adenosine receptors, sequence (P29274 whole entry): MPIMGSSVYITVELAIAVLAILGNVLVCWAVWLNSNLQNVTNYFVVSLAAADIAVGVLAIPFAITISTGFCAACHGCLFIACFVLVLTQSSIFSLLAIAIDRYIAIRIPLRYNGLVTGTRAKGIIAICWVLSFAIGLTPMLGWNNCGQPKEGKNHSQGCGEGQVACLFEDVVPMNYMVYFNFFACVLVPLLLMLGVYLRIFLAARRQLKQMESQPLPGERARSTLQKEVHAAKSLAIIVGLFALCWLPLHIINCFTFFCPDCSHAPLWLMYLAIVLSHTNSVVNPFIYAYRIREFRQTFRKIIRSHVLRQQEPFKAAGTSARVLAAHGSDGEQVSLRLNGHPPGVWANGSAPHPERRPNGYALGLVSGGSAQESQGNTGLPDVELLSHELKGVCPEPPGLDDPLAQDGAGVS

Take `CCCn1c(=O)c2c(nc3[nH]c(-c4ccccc4)cn32)n(Cc2ccccc2)c1=O` [Compound 2, 1-Benzyl-7-phenyl-3-propyl-1H-imidazo[1,2-f]purine-2,4(3H,8H)-dione]: the melting point turned out to be 255 °C. In data set [1], the Ki worked out at 115 nM. Further, the “[3H] ZM 241385 binding to hA2A receptors, percentage in parentheses” value in data set [2] was determined as 99%. The “[3H] DPCPX binding to hA1, percentage in parentheses” value in data set [3] is listed as 83%.
The like results for `CCCn1c(=O)c2c(nc3[nH]c(-c4ccc(OC)cc4)cn32)n(Cc2ccccc2)c1=O` [Compound 3, 1-Benzyl-7-(4-methoxyphenyl)-3-propyl-1H-imidazo[1,2-f]purine-2,4(3H,8H)-dione] were, in that order, 257 °C, 55 nM, 99% and 99%.
`CCCn1c(=O)c2c(nc3[nH]c(-c4ccc(-c5ccccc5)cc4)cn32)n(Cc2ccccc2)c1=O` [Compound 4, 1-Benzyl-7-(biphenyl-4-yl)-3-propyl-1H-imidazo[1,2-f]purine-2,4(3H,8H)-dione] came in with a melting point of 272 °C. Besides, in data set [1], the Ki was above 1000 nM and the “[3H] MRE3008F20 binding to hA3 receptors, percentage in parentheses” value is “(90%)”. The “[3H] ZM 241385 binding to hA2A receptors, percentage in parentheses” value in data set [2] came out at 98%. In addition, in data set [3], the “[3H] DPCPX binding to hA1, percentage in parentheses” value is 95%.
`CCCn1c(=O)c2c(nc3[nH]c(-c4ccc(F)cc4)cn32)n(Cc2ccccc2)c1=O` [Compound 5, 1-Benzyl-7-(4-fluorophenyl)-3-propyl-1H-imidazo[1,2-f]purine-2,4(3H,8H)-dione] yielded a melting point of 250 °C. The Ki in data set [1] was found to be 22 nM. The “[3H] ZM 241385 binding to hA2A receptors, percentage in parentheses” value in data set [2] came to 97%. For the same molecule, the “[3H] DPCPX binding to hA1, percentage in parentheses” value in data set [3] came to 90%.
For `CCCn1c(=O)c2c(nc3[nH]c(C)cn32)n(Cc2ccccc2)c1=O` [Compound 10, 1-Benzyl-7-methyl-3-propyl-1H-imidazo[1,2-f]purine-2,4(3H,8H)-dione], the melting point turned out to be 255 °C. Besides, the half-maximal inhibitory concentration (IC50) in data set [4] worked out at 2060 nM.
`CCCn1c(=O)c2c(nc3[nH]c(CC)cn32)n(Cc2ccccc2)c1=O` [Compound 20, 1-Benzyl-7-ethyl-3-propyl-1H-imidazo[1,2-f]purine-2,4(3H,8H)-dione]: the melting point was 285 °C. Besides, the “cAMP assay in CHO hA22B, percentage in parentheses” value (“cAMP assay in CHO hA22B, percentage” for short) in data set [4] was 97%. For the same molecule, the Ki in data set [1] turned out to be 15 nM. Further, in data set [2], the “[3H] ZM 241385 binding to hA2A receptors, percentage in parentheses” value turned out to be 99%. The “[3H] DPCPX binding to hA1, percentage in parentheses” value in data set [3] was 65%.
In turn, `CCCn1c(=O)c2c(nc3[nH]c(C(C)C)cn32)n(Cc2ccccc2)c1=O` [Compound 21, 1-Benzyl-7-isopropyl-3-propyl-1H-imidazo[1,2-f]purine-2,4(3H,8H)-dione] had a melting point of 128 to 130 °C. Further, the “cAMP assay in CHO hA22B, percentage” value in data set [4] was determined as 77%. Besides, the Ki in data set [1] was determined as 31 nM. Also, the “[3H] ZM 241385 binding to hA2A receptors, percentage in parentheses” value in data set [2] amounted to 91%. In data set [3] (setting [5]), the Ki turned out to be 460 nM.
In the case of `CCCn1c(=O)c2c(nc3[nH]c(C(C)(C)C)cn32)n(Cc2ccccc2)c1=O` [Compound 22, 1-Benzyl-7-tert-butyl-3-propyl-1H-imidazo[1,2-f]purine-2,4(3H,8H)-dione], the melting point was 230 °C. For the same molecule, the “cAMP assay in CHO hA22B, percentage” value in data set [4] worked out at 86%. In data set [1], the Ki was found to be 99 nM. For the same molecule, in data set [2], the “[3H] ZM 241385 binding to hA2A receptors, percentage in parentheses” value is 99%. Besides, in data set [3], the “[3H] DPCPX binding to hA1, percentage in parentheses” value is 51%.
As to `CCCn1c(=O)c2c(nc3[nH]c(C4CC4)cn32)n(Cc2ccccc2)c1=O` [Compound 23, 1-Benzyl-7-cyclopropyl-3-propyl-1H-imidazo[1,2-f]purine-2,4(3H,8H)-dione], the melting point is 244 to 245 °C. The “cAMP assay in CHO hA22B, percentage” value in data set [4] amounted to 79%. Besides, in data set [1], the Ki was 23 nM. Moreover, the “[3H] ZM 241385 binding to hA2A receptors, percentage in parentheses” value in data set [2] is recorded as 98%. In addition, in data set [3] (setting [5]), the Ki came to 350 nM.
Molecule `CCCn1c(=O)c2c(nc3[nH]c(C4CCCCC4)cn32)n(Cc2ccccc2)c1=O` [Compound 24, 1-Benzyl-7-cyclohexyl-3-propyl-1H-imidazo[1,2-f]purine-2,4(3H,8H)-dione] had a melting point of 130 to 132 °C. Besides, the “cAMP assay in CHO hA22B, percentage” value in data set [4] was determined as 71%. In addition, the Ki in data set [1] is 555 nM. In addition, the “[3H] ZM 241385 binding to hA2A receptors, percentage in parentheses” value in data set [2] stood at 99%. In addition, the “[3H] DPCPX binding to hA1, percentage in parentheses” value in data set [3] is recorded as 72%.
In turn, `CCCn1c(=O)c2c(nc3[nH]c(C)c(C)n32)n(Cc2ccccc2)c1=O` [Compound 25, 1-Benzyl-6,7-dimethyl-3-propyl-1H-imidazo[1,2-f]purine-2,4(3H,8H)-dione] yielded a melting point of 259 °C. Moreover, the “cAMP assay in CHO hA22B, percentage” value in data set [4] was determined as 82%. Moreover, the Ki in data set [1] came out at 36 nM. Further, the “[3H] ZM 241385 binding to hA2A receptors, percentage in parentheses” value in data set [2] is given as 92%. Moreover, the “[3H] DPCPX binding to hA1, percentage in parentheses” value in data set [3] is on record as 84%.
The like results for `CCCn1c(=O)c2c(nc3[nH]c(CC)c(C)n32)n(Cc2ccccc2)c1=O` [Compound 26, 1-Benzyl-7-ethyl-6-methyl-3-propyl-1H-imidazo[1,2-f]purine-2,4(3H,8H)-dione] were, in that order, 230 °C, 73%, 60 nM, 97% and 80%.
As for `Cc1cn2c(nc3c2c(=O)n(C)c(=O)n3C)[nH]1` [Compound 27, 1,3,7-Trimethyl-1H-imidazo[1,2-f]purine-2,4(3H,8H)-dione], in data set [4], the IC50 was above 1000 nM and the “cAMP assay in CHO hA22B, percentage” value was found to be 88%. In addition, in data set [1], the Ki is above 1000 nM and the “[3H] MRE3008F20 binding to hA3 receptors, percentage in parentheses” value is “(93%)”. Besides, in data set [2], the Ki is above 1000 nM and the “[3H] ZM 241385 binding to hA2A receptors, percentage in parentheses” value is on record as 99%. For the same molecule, in data set [3], the Ki was above 1000 nM and the “[3H] DPCPX binding to hA1, percentage in parentheses” value worked out at 96%.

By melting point is commonly meant the temperature of the solid-liquid transition. Broadly, the IC50 is the concentration that inhibits the measured activity by half.
